{
  "source": "patent US20250161414A1",
  "about": "“METHOD FOR IMPROVING AUDITORY PERCEPTION USING A VIPR1 INHIBITOR” (ST. JUDE CHILDREN'S RESEARCH HOSPITAL, INC., priority 2022, published 2025)",
  "key": {"[1]": {"tested_on": "hM4Di-expressing cortical FS interneurons", "assay": "Current-clamp recording from hM4Di-expressing (mCitrine+) cells in acute cortical slices", "type": "cell-based, mouse", "conditions": "bath application", "protocol": "Single-Cell Electrophysiology: Auditory Thalamocortical Brain Slices. Acute primary thalamocortical (TC) slices (400-μm thick) containing the left ACx and the left ventral part of the medial geniculate nuclei (MGv) of the thalamus were prepared as previously described (Chun et al. (2014) Science 344:1178-1182; Cruikshank et al. (2002) J. Neurophysiol. 87:361-384). Briefly, mouse brains were removed and placed in cold (4° C.) dissecting medium containing 125 mM choline-Cl, 2.5 mM KCl, 0.4 mM CaCl2, 6 mM MgCl2, 1.25 mM NaH2PO4, 26 mM NaHCO3, and 20 mM glucose (300-310 mosm), equilibrated with 95% O2/5% CO2. […] If recorded in current-clamp mode, pyramidal neurons were additionally verified as regularly spiking. […]\nSingle-Cell Electrophysiology: Whole-Cell Recording. Whole-cell recordings were made with patch pipettes (3-5 MOhm) using a Multiclamp 700B amplifier, digitized (10 kHz) with a Digidata 1440, and recorded using pCLAMP 10 software (all Molecular Devices, San Jose, CA). […] In voltage-clamp recordings, series resistance, input resistance, and holding current were monitored for stability. […] Input resistance and membrane resting voltage were monitored during recordings. […] Drugs were added to ACSF or locally applied via continuous pressure ejection from a large-diameter pipette placed in the slice near the recorded cell. […]"}, "[2]": {"assay": "Frequency discrimination (auditory) acuity test, pre-pulse inhibition of acoustic startle response (FDT)", "type": "in vivo, mouse", "conditions": "Gad2Cre, i.p., compared to vehicle", "protocol": "(§1) Mouse Behavioral Tests: Frequency Discrimination (Auditory) Acuity Test. Pitch-discrimination acuity was assessed using pre-pulse inhibition (PPI) of the acoustic startle response via a hardware-computer interface (Kinder Scientific, Chula Vista, CA), according to established methods (Aizenberg et al. (2015) PLOS Biol. 13:e1002308; Blundon et al. (2017) Science 356:1352-1356). In brief, a background pure tone (16.4 kHz) was played at a sound pressure level (SPL) of 70 dB throughout the session, unless otherwise noted. Each session was split into four blocks. Block 1 included a 5-minute acclimation period in which the background tone was played. Block 2 included nine startle trials in which a 120-dB SPL, 20-ms white noise (WN) burst was played. Block 3 included prepulse trials and 10 startle-only trials in a pseudo-random order. Each pre-pulse trial included a 70-dB SPL 80-ms pre-pulse (pure-tone frequency was 0%, 1%, 2%, 4%, 8%, 16%, or 32% lower than that of the background tone), followed by a 120-dB SPL, 20-ms WN startle pulse, and then returned to the background tone after the startle. Every trial in Block 3 was presented 10 times. […] PPI percentage was calculated from Block 3 data as follows: [1−(pre-pulse trial/average startle only trial)]*100. […] FDT values were then analyzed using a t-test, a one-way ANOVA, or a paired t-test, as appropriate. […]"}, "[3]": {"assay": "Acoustic startle response (ASR)", "type": "in vivo, mouse", "conditions": "C21 i.p., either genotype (Gad2Cre; WT or Gad2Cre; CD+/-)", "protocol": "as §1"}, "[4]": {"tested_on": "ACx excitatory neurons", "type": "cell-based, mouse"}, "[5]": {"tested_on": "FS interneurons in the ACx", "assay": "Whole-cell current-clamp recording of FS interneuron excitability (rheobase, current ramp) in auditory thalamocortical slices", "type": "cell-based, mouse", "conditions": "for PG 97-269 rheobase shift (difference between rheobase before and after application) / PG 97-269 rheobase shift: FS interneurons"}, "[6]": {"tested_on": "ACx interneurons", "assay": "Whole-cell voltage-clamp recording of inward voltage-gated current threshold (voltage ramp) in ACx interneurons", "type": "cell-based, mouse", "conditions": "Gtf2ird1+/- and Gtf2ird1-/- cortical interneurons compared to WT interneurons"}},
  "note": "Where two headings read alike, the source gives them in different places. No end group written: not given here.",
  "data": [
    {"compound": "c1ccc2c(c1)N=C(N1CCNCC1)c1ccccc1N2", "note": "[C21]", "values": [
      {"measurement": "number of action potentials elicited by depolarizing current injections", "setting": "[1]", "value": "decreased"},
      {"measurement": "FDT (frequency-discrimination threshold)", "setting": "[2]; CD+/- mice expressing hM4Di in ACx interneurons", "value": "significantly increased"},
      {"measurement": "FDT (frequency-discrimination threshold)", "setting": "[2]; WT mice expressing hM4Di in ACx interneurons", "value": "not different"},
      {"measurement": "ASR", "setting": "[3]", "value": "not affected"}
    ]},
    {"compound": "NC1=N[C@H](O)[C@H]2[C@H]3O[C@]4(O)O[C@@H]([C@@H](O)[C@@]2(N1)[C@@H]4O)[C@]3(O)CO", "note": "[tetrodotoxin]", "values": [
      {"measurement": "difference in sEPSC frequencies between WT and CD+/- ACx excitatory neurons after application", "setting": "[4]", "value": "abolished"}
    ]},
    {"compound": "[Ala^11,22,28]-VIP (HSDAVFTDNYARLRKQMAVKKALNSILA; ends and bridges not checked; UniProt P01282 125-152, looked up, variant T11A Y22A N28A) [VIPR1-specific agonist]", "values": [
      {"measurement": "effect of VIPR1-specific agonist on interneurons", "setting": "[5]; WT or CD+/- interneurons, brain slices", "value": "no significant effect"}
    ]},
    {"compound": "[Acetyl-His^1, D-Phe^2, Lys^15, Arg^16, Leu^17] VIP (1-7)/GRF (8-27) hybrid with C-terminal amidation (HFDAVFTNSYRKVLKRLSARKLLQDIL; HELM PEPTIDE1{[ac].H.[dF].D.A.V.F.T.N.S.Y.R.K.V.L.K.R.L.S.A.R.K.L.L.Q.D.I.L.[am]}$$$$V2.0; SMILES CC[C@H](C)[C@H](NC(=O)[C@H](CC(=O)O)NC(=O)[C@H](CCC(N)=O)NC(=O)[C@H](CC(C)C)NC(=O)[C@H](CC(C)C)NC(=O)[C@H](CCCCN)NC(=O)[C@H](CCCNC(=N)N)NC(=O)[C@H](C)NC(=O)[C@H](CO)NC(=O)[C@H](CC(C)C)NC(=O)[C@H](CCCNC(=N)N)NC(=O)[C@H](CCCCN)NC(=O)[C@H](CC(C)C)NC(=O)[C@@H](NC(=O)[C@H](CCCCN)NC(=O)[C@H](CCCNC(=N)N)NC(=O)[C@H](Cc1ccc(O)cc1)NC(=O)[C@H](CO)NC(=O)[C@H](CC(N)=O)NC(=O)[C@@H](NC(=O)[C@H](Cc1ccccc1)NC(=O)[C@@H](NC(=O)[C@H](C)NC(=O)[C@H](CC(=O)O)NC(=O)[C@@H](Cc1ccccc1)NC(=O)[C@H](Cc1c[nH]cn1)NC(C)=O)C(C)C)[C@@H](C)O)C(C)C)C(=O)N[C@@H](CC(C)C)C(N)=O) [PG 97-269, VIPR1-specific antagonist]", "values": [
      {"measurement": "effect on excitability of FS interneurons", "setting": "[5]; ACx of Gtf2ird1+/- and Gtf2ird1-/- mice compared to WT mice", "value": "either a diminished or no effect"},
      {"measurement": "effect on excitability of FS interneurons", "setting": "[5]; CD+/- cortex, interneurons already hyperexcitable", "value": "no additional effect"},
      {"measurement": "PG 97-269 rheobase shift (difference between rheobase before and after application)", "setting": "[5]; CD+/- mice", "value": "not significantly different from 0"},
      {"measurement": "PG 97-269 rheobase shift", "setting": "[5]; Gtf2ird1+/- mice", "value": "did differ from 0"},
      {"measurement": "PG 97-269 rheobase shift", "setting": "[5]; Gtf2ird1-/- mice", "value": "did not significantly differ from 0"},
      {"measurement": "PG 97-269 rheobase shift (difference between rheobase before and after application)", "setting": "[5]; WT mice", "value": "significantly less than 0"},
      {"measurement": "PG 97-269 threshold shift", "setting": "[6]", "value": "significantly reduced"}
    ]},
    {"compound": "picrotoxin", "values": [
      {"measurement": "difference in sEPSC frequencies between WT and CD+/- ACx excitatory neurons after application", "setting": "[4]; L4 ACx excitatory neurons", "value": "abolished"}
    ]}
  ]
}
